Measurements taken from patent publication US20240301408A1, “MICRORNA 195 COMPOSITIONS AND METHODS FOR TREATING COGNITIVE IMPAIRMENT” (UNITED STATES GOVERNMENT AS REPRESENTED BY THE DEPARTMENT …, priority 2021, published 2024).

Columns and labels:
BV2 cells = assay: LPS-induced pro-inflammatory cytokine release (IL-6, TNFα) in BV2 microglia with miR-195-5p over-expression; format: cell-based
Experimental: For example, LPS (at 0.2 μg/ml) treatment for overnight in BV2 cells leads to increased expression of pdcd4 and smad7 (FIG. 13A) and reduced expression of il10ra (FIG. 13C). […] Over-expression of miR-195-5p also attenuates LPS-induced pro-inflammatory cytokine release (IL-6 and TNFα; FIG. 13B). […] For these experiments, purified exosomes were derived from human APOE3/3 and 4/4 iPSC-derived astrocytes w/wo miR-195 over-expression detected by an exosome marker, ALIX. Fluorescence labeled exosomes were taken up by IBA1+ microglia cells.
Over-expression of miR-195-5p in microglia inhibits LPS-induced proinflammatory responses and augments anti-inflammatory responses. […] However, over-expression of miR-195-5p reduces expression levels of pdcd4 and smad7 and increases il10a expression in the presence of LPS. Over-expression of miR-195-5p also attenuates LPS-induced pro-inflammatory cytokine release (IL-6 and TNFα; FIG. 17B).

Aβ / amyloid plaque = assay: brain oligomer Aβ42, soluble Aβ and amyloid plaque burden in EFAD mice after miR-195-5p over-expression; format: in vivo, mouse
Experimental: Stereotaxic injection and behavior studies. Eight to nine weeks old male and female ApoE3^+/+ and ApoE4^+/+ KI mice without 5×FAD background (N=19-23/group), or with 5×FAD background (N=15-17/group) were placed in the stereotaxic apparatus with AAV2 or scramble virus administered into the dorsal CA1 regions of bilateral hippocampal brain regions using pressure injection (Labonte B et al., Nat Med 2017, and Passini M A et al., The Journal of neuroscience 2006). Injection volumes (0.5-2.0 μl) were delivered over 10 min to avoid tissue damage. Six to nine months after viral delivery, mice were tested with the NOR task (Zhu L et al., Proc Natl Acad Sci USA 2015, Elder G A et al., J Neurotrauma 2012, and Howlett D R et al., Brain Res 2004). Mice were randomized for genotype and sex, and blinded throughout the behavior data collection and analysis, surgical manipulations, and sample collection.
Brain and neuronal sample preparation and biochemical analysis. Snap-frozen mouse hemi-brains or cultured neurons were harvested in lysis buffer (Lane R F et al., The Journal of neuroscience 2010) and processed via step-wise solubilization (Lane R F et al., The Journal of neuroscience 2010, and Kawarabayashi T et al. The Journal of neuroscience 2001) followed by SDS-PAGE to determine levels of synj1, dyn1, holoAPP, and CTFs. Levels of Aβ42, Aβ40, pTau, Tau and ApoE were determined using high-sensitive ELISA kits. Some tissue was used for miRNA and RNA extraction followed by qPCR and RNA-seq analysis. […]
Statistical analysis. […] Levels of miR-195-5p and miR-374 were normalized to U6 and RNU6B (internal controls) while synj1 mRNA normalized to GAPDH and 18s, and then expressed as Log2fold of changes when compared to controls. Levels of synj1, dyn1, pTau, Tau, and holoAPP were normalized to β-actin levels and expressed as a percentage of the control. Absolute Aβ42, Aβ40, pTau, Tau, and ApoE concentrations were quantitatively determined by ELISA and expressed as a percentage of the control. […] Pearson correlation coefficients were calculated to determine the linear relationship between the two variables. […]

[1] = system: lysosomes of ApoE4+/+ / ApoE3+/+ neurons; assay: lysosome size and number (Lysotracker, confocal) in neurons of iPSC-derived neuron and astrocyte co-culture; format: cell-based, human
Experimental: Mouse Neuronal and human iPSC culture. Primary cortical neurons were cultured (Zhu L et al., Proc Natl Acad Sci USA 2015, and Zhu L et al., J Biol Chem 2013) before being fixed and stained for confocal microscopy analysis (Zeiss LSM) (Berg I et al., Nat Protoc 2010). In some conditions, bovine serum albumin (BSA) or receptor-associated protein (RAP) was included in the cultured media (N=3/group). Alternatively, cultured neurons were transfected with adeno-associated virus 2 (AAV2)-containing miR-195-5p or miR-374 or scramble controls for 5 days before subjected to analysis. The ApoE4^+/+ and ApoE3^+/+ iPSCs were differentiated into neural progenitor cells (NPCs) by dual SMAD inhibition followed by neural rosette selection and forebrain-specific patterning by 20 ng/ml FGF2 exposure (Bowles K R et al., PloS one 2019, and Tcw J et al., Stem cell reports 2017). These NPCs were purified by MACS for CD271^−/CD133^+ (Bowles K R et al., PloS one 2019) and differentiated to cortical neurons (Bardy C et al., Proc Natl Acad Sci USA 2015, and Paquet D et al., Nature 2016) and a homogeneous population of astrocytes (Tcw J et al., Stem cell reports 2017, and Shaltouki A et al., Stem Cells 2013) before subjected to viral transfection and confocal microscopy analysis. Alternatively, mouse cortical neurons derived from ApoE4^+/+ and ApoE3^+/+ KI mice with synj1^+/+ or synj1^−/− genotypes were co-cultured with ApoE4^+/+ and ApoE3^+/+ iPSC-derived pure astrocytes. In some experiments, cultured neurons were transfected with AAV2-containing miR-195-5p, scramble controls or miR195 inhibitors that specifically prevent miR-195-5p binding to its target mRNA before co-culturing with iPSC-derived astrocytes. Cultured iPSC-derived neurons and astrocytes were then incubated with lysotracker red for various time periods before fixation and double-stained for pTau and a nuclear marker DAPI (blue) for confocal microscopy analysis (Zeiss). N=4-5/condition.

[2] = ApoE4+/+ and ApoE3+/+ FAD mouse brains

UAGCAGCACAGAAAUAUUGGC (chemistry not given here) [miR-195-5p, over-expressed via AAV2-containing miR-195-5p from ABM Inc]
LPS-induced pro-inflammatory cytokine release (IL-6 and TNFα) (BV2 cells): attenuates
amyloid plaque burden (plaque numbers and plaque density) (Aβ / amyloid plaque; [2]): dramatic reduction
brain oligomer Aβ42 measured by ELISA (Aβ / amyloid plaque; [2]): dramatic reduction
soluble Aβ40, Aβ42 levels (Aβ / amyloid plaque; E4FAD and E3FAD mouse brains): no significant changes
lysosomal phenotypes compared to baseline ([1]; ApoE3+/+ neurons): No significant differences
neurons with lysosome diameter between 0 to 10 μm ([1]; ApoE4+/+ neurons): 53.3%
neurons with >10 lysosomes/cell ([1]; ApoE4+/+ neurons, baseline 18.4%): 1.7%
